Experimental data reported in US11274083B2, “Substituted thiophenyl uracils, salts thereof and the use thereof as herbicidal agents” (Syngenta Crop Protection AG, priority 2017, dated 2022).

Assays:
Type in all cases: in vivo
Matricaria inodora [1] = experiment: Herbicidal action pre-emergence, greenhouse pot test
Avena fatua [2] = experiment: Herbicidal action post-emergence, greenhouse pot test; details: application rate 80 g/ha
How it was run: (§1)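 Plants grown from seed in sandy loam are treated at the one-leaf stage with aqueous suspensions or emulsions, 600 L/ha water rate, 0.5% additive, at 80 g/ha or lower. They then stand about 3 weeks in the greenhouse before visual scoring against untreated controls.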

Hordeum murinum [3] = experiment: as above
How it was run: as §1

Matricaria inodora [4] = experiment: as above
How it was run: as §1

Veronica persica [5] = experiment: as above; details: application rate 20 g/ha
How it was run: as §1

Amaranthus retroflexus [6] = experiment: as above
How it was run: as §1

Polygonum convolvulus [7] = experiment: as above
How it was run: as §1

Pharbitis purpurea [8] = experiment: as above; details: application rate 20 g/ha
How it was run: as §1

Abutilon theophrasti [9] = experiment: as above
How it was run: as §1

Setaria viridis [10] = experiment: as above
How it was run: as §1

Alopecurus myosuroides [11] = experiment: as above; details: scored visually after about 3 weeks vs untreated controls
How it was run: as §1

Echinochloa crus-galli [12] = experiment: as above
How it was run: as §1

Lolium rigidum [13] = experiment: as above
How it was run: as §1

Stellaria media [14] = experiment: as above; details: application rate 20 g/ha
How it was run: as §1

Viola tricolor [15] = experiment: as above
How it was run: as §1

Avena fatua [16] = experiment: Herbicidal action pre-emergence, greenhouse pot test; details: application rate 320 g/ha
How it was run: (§2)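 Efficacy (%) was estimated visually after about 3 weeks in the greenhouse by comparison with untreated pots. Before that, seeded pots received a surface spray of formulated compound at 320 g/ha or less.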

Hordeum murinum [17] = experiment: as above; details: application rate 320 g/ha
How it was run: as §2

Veronica persica [18] = experiment: as above
How it was run: as §2

Amaranthus retroflexus [19] = experiment: as above
How it was run: as §2

Polygonum convolvulus [20] = experiment: as above
How it was run: as §2

Pharbitis purpurea [21] = experiment: as above
How it was run: as §2

Abutilon theophrasti [22] = experiment: as above
How it was run: as §2

Setaria viridis [23] = experiment: as above
How it was run: as §2

Alopecurus myosuroides [24] = experiment: as above; details: application rate 320 g/ha
How it was run: as §2

Echinochloa crus-galli [25] = experiment: as above; details: application rate 320 g/ha
How it was run: as §2

Lolium rigidum [26] = experiment: as above; details: application rate 320 g/ha
How it was run: as §2

Stellaria media [27] = experiment: as above
How it was run: as §2

Viola tricolor [28] = experiment: as above
How it was run: as §2

Zea mays = experiment: Crop compatibility post-emergence, greenhouse pot test; details: application rate 5 g/ha
How it was run: (§3)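 Crops grown in sandy loam in greenhouse pots; treated post-emergence at one-leaf stage, 2–3 weeks after sowing, spraying WP or EC formulations as aqueous suspension/emulsion with 0.5% additive at 600 L/ha. Damage scored visually after about 3 weeks against untreated controls (0% = like control, 100% = dead).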

Oryza sativa = experiment: as above; details: application rate 5 g/ha
How it was run: as §3

Glycine max = experiment: as above; details: application rate 5 g/ha
How it was run: as §3

Triticum aestivum = experiment: as above; details: application rate 5 g/ha
How it was run: as §3

Digitaria sanguinalis = experiment: Herbicidal action post-emergence, greenhouse pot test; details: application rate 20 g/ha

In the case of `COC(=O)CCOC(=O)C(C)Sc1cc(-n2c(=O)cc(C(F)(F)F)n(C)c2=O)c(F)cc1Cl` (stereo not shown) [I.1-2], the “Matricaria inodora (Efficacy in %)” value (Matricaria inodora [1]; application rate 80 g/ha) is reported as 100%, the “Avena fatua (Efficacy in %)” value (Avena fatua [2]) is reported as 80% and the “Hordeum murinum (Efficacy in %)” value (Hordeum murinum [3]; application rate 20 g/ha) is reported as 100%. The “Matricaria inodora (Efficacy in %)” value (Matricaria inodora [4]; application rate 80 g/ha) was 100%, the “Veronica persica (Efficacy in %)” value (Veronica persica [5]) was 100% and the “Amaranthus retroflexus (Efficacy in %)” value (Amaranthus retroflexus [6]; application rate 80 g/ha) was 100%. For the same molecule, the “Polygonum convolvulus (Efficacy in %)” value (Polygonum convolvulus [7]; application rate 20 g/ha) was 100%, the “Pharbitis purpurea (Efficacy in %)” value (Pharbitis purpurea [8]) was 100% and the “Abutilon theophrasti (Efficacy in %)” value (Abutilon theophrasti [9]; application rate 80 g/ha) was 100%. The “Setaria viridis (Efficacy in %)” value (Setaria viridis [10]; application rate 80 g/ha) was 100%, the “Alopecurus myosuroides (Efficacy in %)” value (Alopecurus myosuroides [11]; application rate 80 g/ha) was 100% and the “Echinochloa crus-galli (Efficacy in %)” value (Echinochloa crus-galli [12]; application rate 80 g/ha) was 100%. For the same molecule, the “Lolium rigidum (Efficacy in %)” value (Lolium rigidum [13]; application rate 80 g/ha) was 90%, the “Stellaria media (Efficacy in %)” value (Stellaria media [14]) was 100% and the “Viola tricolor (Efficacy in %)” value (Viola tricolor [15]; application rate 80 g/ha) was 100%. The “Avena fatua (Efficacy in %)” value (Avena fatua [16]) was 90%, the “Hordeum murinum (Efficacy in %)” value (Hordeum murinum [17]) was 90% and the “Veronica persica (Efficacy in %)” value (Veronica persica [18]; application rate 80 g/ha) was 100%. The “Amaranthus retroflexus (Efficacy in %)” value (Amaranthus retroflexus [19]; application rate 80 g/ha) was 100%, the “Polygonum convolvulus (Efficacy in %)” value (Polygonum convolvulus [20]; application rate 80 g/ha) was 100% and the “Pharbitis purpurea (Efficacy in %)” value (Pharbitis purpurea [21]; application rate 80 g/ha) was 100%. The “Abutilon theophrasti (Efficacy in %)” value (Abutilon theophrasti [22]; application rate 80 g/ha) was 100%, the “Setaria viridis (Efficacy in %)” value (Setaria viridis [23]; application rate 80 g/ha) was 100% and the “Alopecurus myosuroides (Efficacy in %)” value (Alopecurus myosuroides [24]) was 90%. The “Echinochloa crus-galli (Efficacy in %)” value (Echinochloa crus-galli [25]) was 100%, the “Lolium rigidum (Efficacy in %)” value (Lolium rigidum [26]) was 100% and the “Stellaria media (Efficacy in %)” value (Stellaria media [27]; application rate 80 g/ha) was 100%. For the same molecule, the “Viola tricolor (Efficacy in %)” value (Viola tricolor [28]; application rate 80 g/ha) was 100%.

`COC(=O)CC(CC(=O)OC)OC(=O)C(C)Sc1cc(-n2c(=O)cc(C(F)(F)F)n(C)c2=O)c(F)cc1Cl` (stereo not shown) [I.1-127] was tested, and the “Matricaria inodora (Efficacy in %)” value (Matricaria inodora [1]; application rate 320 g/ha) was 100%, the “Avena fatua (Efficacy in %)” value (Avena fatua [2]) was 80% and the “Hordeum murinum (Efficacy in %)” value (Hordeum murinum [3]; application rate 80 g/ha) was 90%. The “Matricaria inodora (Efficacy in %)” value (Matricaria inodora [4]; application rate 80 g/ha) was 100%, the “Veronica persica (Efficacy in %)” value (Veronica persica [5]) was 100% and the “Amaranthus retroflexus (Efficacy in %)” value (Amaranthus retroflexus [6]; application rate 20 g/ha) was 100%. For the same molecule, the “Polygonum convolvulus (Efficacy in %)” value (Polygonum convolvulus [7]; application rate 80 g/ha) was 100%, the “Pharbitis purpurea (Efficacy in %)” value (Pharbitis purpurea [8]) was 100% and the “Abutilon theophrasti (Efficacy in %)” value (Abutilon theophrasti [9]; application rate 80 g/ha) was 100%. The “Setaria viridis (Efficacy in %)” value (Setaria viridis [10]; application rate 80 g/ha) was 100%, the “Alopecurus myosuroides (Efficacy in %)” value (Alopecurus myosuroides [11]; application rate 80 g/ha) was 90% and the “Echinochloa crus-galli (Efficacy in %)” value (Echinochloa crus-galli [12]; application rate 80 g/ha) was 100%. The “Lolium rigidum (Efficacy in %)” value (Lolium rigidum [13]; application rate 80 g/ha) was 100%, the “Stellaria media (Efficacy in %)” value (Stellaria media [14]) was 100% and the “Viola tricolor (Efficacy in %)” value (Viola tricolor [15]; application rate 80 g/ha) was 100%. The “Avena fatua (Efficacy in %)” value (Avena fatua [16]) was 90%, the “Hordeum murinum (Efficacy in %)” value (Hordeum murinum [17]) was 100% and the “Veronica persica (Efficacy in %)” value (Veronica persica [18]; application rate 320 g/ha) was 100%. For the same molecule, the “Amaranthus retroflexus (Efficacy in %)” value (Amaranthus retroflexus [19]; application rate 20 g/ha) was 100%, the “Polygonum convolvulus (Efficacy in %)” value (Polygonum convolvulus [20]; application rate 320 g/ha) was 100% and the “Pharbitis purpurea (Efficacy in %)” value (Pharbitis purpurea [21]; application rate 320 g/ha) was 100%. The “Abutilon theophrasti (Efficacy in %)” value (Abutilon theophrasti [22]; application rate 320 g/ha) was 100%, the “Setaria viridis (Efficacy in %)” value (Setaria viridis [23]; application rate 320 g/ha) was 100% and the “Alopecurus myosuroides (Efficacy in %)” value (Alopecurus myosuroides [24]) was 90%. For the same molecule, the “Echinochloa crus-galli (Efficacy in %)” value (Echinochloa crus-galli [25]) was 100%, the “Lolium rigidum (Efficacy in %)” value (Lolium rigidum [26]) was 100% and the “Stellaria media (Efficacy in %)” value (Stellaria media [27]; application rate 320 g/ha) was 100%. For the same molecule, the “Viola tricolor (Efficacy in %)” value (Viola tricolor [28]; application rate 320 g/ha) was 100% and the “Zea mays (Efficacy in %)” value (Zea mays) was 20%.

With `CNC(=O)CCOC(=O)C(C)Sc1cc(-n2c(=O)cc(C(F)(F)F)n(C)c2=O)c(F)cc1Cl` (stereo not shown) [I.1-152] the “Matricaria inodora (Efficacy in %)” value (Matricaria inodora [4]; application rate 20 g/ha) was 100%, the “Veronica persica (Efficacy in %)” value (Veronica persica [5]) was 100% and the “Amaranthus retroflexus (Efficacy in %)” value (Amaranthus retroflexus [6]; application rate 20 g/ha) was 100%. The “Polygonum convolvulus (Efficacy in %)” value (Polygonum convolvulus [7]; application rate 20 g/ha) was 100%, the “Pharbitis purpurea (Efficacy in %)” value (Pharbitis purpurea [8]) was 100% and the “Abutilon theophrasti (Efficacy in %)” value (Abutilon theophrasti [9]; application rate 20 g/ha) was 100%. The “Setaria viridis (Efficacy in %)” value (Setaria viridis [10]; application rate 20 g/ha) was 100%, the “Alopecurus myosuroides (Efficacy in %)” value (Alopecurus myosuroides [11]; application rate 20 g/ha) was 80% and the “Echinochloa crus-galli (Efficacy in %)” value (Echinochloa crus-galli [12]; application rate 20 g/ha) was 100%. For the same molecule, the “Lolium rigidum (Efficacy in %)” value (Lolium rigidum [13]; application rate 20 g/ha) was 80%, the “Stellaria media (Efficacy in %)” value (Stellaria media [14]) was 100% and the “Viola tricolor (Efficacy in %)” value (Viola tricolor [15]; application rate 20 g/ha) was 100%. For the same molecule, the “Oryza sativa (Efficacy in %)” value (Oryza sativa) was 10%, the “Glycine max (Efficacy in %)” value (Glycine max) was 20% and the “Triticum aestivum (Efficacy in %)” value (Triticum aestivum) was 20%. The “Digitaria sanguinalis (Efficacy in %)” value (Digitaria sanguinalis) was 100%.
